Reference: patent publication US10335409B2 (priority 2012, dated 2019)
Where two headings read alike, the source gives them in different places.

How the values were obtained:
Assay type in all cases: cell-based, hepatitis C virus
[1] = tested on: genotype 1a (H77) stable HCV replicon in Huh-7-derived cells; assay: Stable subgenomic HCV replicon EC50, genotype 1a (Renilla luciferase); details: Hepatitis C virus, stable replicon genotype 1a, 72 h, read-out: EC50 1A RLUC
Method in brief: (§1)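 Compounds, three-fold diluted, were applied to Huh-7-derived cells harbouring luciferase replicons (genotype 1a H77, 1b Con1, 2a JFH-1, 4a ED43, with strain-specific adaptive mutations). Seventy-two hours later, intracellular replication was gauged by Renilla luciferase activity and EC50 derived by regression.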

[2] = tested on: genotype 1b (Con1) stable HCV replicon in Huh-7-derived cells; assay: Stable subgenomic HCV replicon EC50, genotype 1b (Renilla luciferase); details: Hepatitis C virus, stable replicon genotype 1b, 72 h, read-out: EC50 1B RLUC
Method in brief: as §1

[3] = tested on: genotype 2a (JFH-1) stable HCV replicon in Huh-7-derived cells; assay: Stable subgenomic HCV replicon EC50, genotype 2a (Renilla luciferase); details: Hepatitis C virus, stable replicon genotype 2a, 72 h, read-out: EC50 2A RLUC
Method in brief: as §1

[4] = tested on: genotype 3a (S52) stable HCV replicon in Huh-7-derived cells; assay: Stable subgenomic HCV replicon EC50, genotype 3a (Renilla luciferase); details: Hepatitis C virus, 72 h, read-out: EC50 3A RLUC
[5] = tested on: genotype 4a (ED43) stable HCV replicon in Huh-7-derived cells; assay: Stable subgenomic HCV replicon EC50, genotype 4a (Renilla luciferase); details: Hepatitis C virus, 72 h, read-out: EC50 4A RLUC
Method in brief: as §1

[6] = tested on: genotype 3a (S52) wild type transient HCV replicon in Huh-7-derived cells; assay: Transient-transfected HCV replicon EC50, genotype 3a wild type; details: Hepatitis C virus, 72 h, read-out: EC50 3A WT
[7] = tested on: genotype 1a (H77) wild type transient HCV replicon in Huh-7-derived cells; assay: Transient-transfected HCV replicon EC50, genotype 1a wild type; details: Hepatitis C virus, 72 h, read-out: EC50 1A WT
[8] = tested on: genotype 1a NS3/4a protease inhibitor resistant variant R155K transient HCV replicon in Huh-7-derived cells; assay: Transient-transfected HCV replicon EC50, genotype 1a R155K; details: Hepatitis C virus, 72 h, read-out: EC50 1A R155K, transient-transfected replicon genotype 1a R155K resistant variant, 72 h
[9] = tested on: genotype 1b (Con1) wild type transient HCV replicon in Huh-7-derived cells; assay: Transient-transfected HCV replicon EC50, genotype 1b wild type; details: Hepatitis C virus, 72 h, read-out: EC50 1B WT
[10] = tested on: genotype 1b NS3/4a protease inhibitor resistant variant D168A transient HCV replicon in Huh-7-derived cells; assay: Transient-transfected HCV replicon EC50, genotype 1b D168A; details: Hepatitis C virus, 72 h, read-out: EC50 1B D168A, transient-transfected replicon genotype 1b D168A resistant variant, 72 h
[11] = transient-transfected replicon genotype 3a wild type
[12] = transient-transfected replicon genotype 1a wild type
[13] = transient-transfected replicon genotype 1b wild type

Row | SMILES | EC50 [1] | EC50 [2] | EC50 [3] | EC50 [4] | EC50 [5] | EC50 [6, 11] | EC50 [7, 12] | EC50 [8] | EC50 [9, 13] | EC50 [10] | EC50 ([7]; GETYPE1A, transient-transfected replicon genotype 1a wild type) | EC50 ([8]; GETYPE1A) | EC50 ([9]; GETYPE1B, transient-transfected replicon genotype 1b wild type) | EC50 ([10]; GETYPE1B) | EC50 [6] | EC50 [7] | EC50 [9]
1 | CC[C@@H]1[C@@H]2CN(C(=O)[C@H](C(C)(C)C)NC(=O)O[C@@H]3C[C@H]3CCCCC(F)(F)c3nc4ccc(C#N)cc4nc3O2)[C@@H]1C(=O)N[C@]1(C(=O)NS(=O)(=O)C2(C)CC2)C[C@H]1C(F)F [Example 87, (1aR,5S,8S,9S,10R,22aR)-5-tert-butyl-14-cyano-N-[(1R,2R)-2-(difluoromethyl)-1-{[(1-methylcyclopropyl)sulfonyl]carbamoyl}cyclopropyl]-9-ethyl-18,18-difluoro-3,6-dioxo-1,1a,3,4,5,6,9,10,18,19,20,21,22,22a-tetradecahydro-8H-7,10-methanocyclopropa[18,19][1,10,3,6]dioxadiazacyclononadecino[11,12-b]quinoxaline-8-carboxamide] | 4.8 nM | 3.9 nM | 3.3 nM | 14 nM | 3.8 nM | 7.7 nM | 2.9 nM | 2.8 nM | 1.3 nM | 4 nM | – | – | – | – | – | – | –
2 | CC[C@@H]1[C@@H]2CN(C(=O)[C@H](C(C)(C)C)NC(=O)O[C@]3(C)CCC[C@H]3CCCCCc3nc4ccc(OC)cc4nc3O2)[C@@H]1C(=O)N[C@]1(C(=O)NS(=O)(=O)C2CC2)C[C@H]1CC [Example 51] | 40 nM | 39 nM | 103 nM | 1220 nM | 30 nM | 265 nM | – | – | – | – | 28 nM | 92 nM | 24 nM | 318 nM | – | – | –
3 | C[C@@H]1[C@@H]2CN(C(=O)[C@H](C(C)(C)C)NC(=O)O[C@@H]3C[C@@H]4C[C@@H]4[C@H]3CCCCC(F)(F)c3nc4ccccc4nc3O2)[C@@H]1C(=O)N[C@]1(C(=O)NS(=O)(=O)C2(C)CC2)C[C@H]1C(F)F [Example 82, (1aS,2aR,6S,9S,10S,11R,23aR,23bS)-6-tert-butyl-N-[(1R,2R)-2-(difluoromethyl)-1-{[(1-methylcyclopropyl)sulfonyl]carbamoyl}cyclopropyl]-19,19-difluoro-10-methy-4,7-dioxo-1a,2,2a,4,5,6,7,10,11,19,20,21,22,23,23a,23b-hexadecahydro-1H,9H-8,11-methanocyclopropa[4′,5′]cyclopenta[1′,2′:18,19][1,10,3,6]dioxadiazacyclononadecino[11,12-b]quinoxaline-9-carboxamide] | 8.5 nM | 9.3 nM | 4.7 nM | 25 nM | 10 nM | 16 nM | 7.8 nM | 6.2 nM | 4.1 nM | 5.7 nM | – | – | – | – | – | – | –
4 | CC[C@@H]1[C@@H]2CN(C(=O)[C@H](C(C)(C)C)NC(=O)O[C@@H]3C[C@H]3CCCCCc3nc4ccc(OC)cc4nc3O2)[C@@H]1C(=O)N[C@]1(C(=O)NS(=O)(=O)C2(F)CC2)C[C@H]1C(F)F [Example 74, (1aR,5S,8S,9S,10R,22aR)-5-tert-butyl-N-[(1R,2R)-2-(difluoromethyl)-1-{[(1-fluorocyclopropyl)sulfonyl]carbamoyl}cyclopropyl]-9-ethyl-14-methoxy-3,6-dioxo-1,1a,3,4,5,6,9,10,18,19,20,21,22,22a-tetradecahydro-8H-7,10-methanocyclopropa[18,19][1,10,3,6]dioxadiazacyclononadecino[11,12-b]quinoxaline-8-carboxamide] | 8 nM | 5 nM | 18 nM | 374 nM | 8.3 nM | 138 nM | 8.8 nM | 44 nM | 2.1 nM | 56 nM | – | – | – | – | – | – | –
5 | C[C@@H]1[C@@H]2CN(C(=O)[C@H](C(C)(C)C)NC(=O)O[C@@H]3C[C@@H]4C[C@@H]4[C@H]3CCCCCc3nc4ccc(C#N)cc4nc3O2)[C@@H]1C(=O)NC1(C(=O)NS(=O)(=O)C2(C)CC2)C[C@H]1C(F)F (stereo partly drawn) [Example 97, (1aS,2aR,6S,9S,10S,11R,23aR,23bS)-6-tert-butyl-15-cyano-N-[(2R)-2-(difluoromethyl)-1-{[(1-methylcyclopropyl)sulfonyl]carbamoyl}cyclopropyl]-10-methyl-4,7-dioxo-1a,2,2a,4,5,6,7,10,11,19,20,21,22,23,23a,23b-hexadecahydro-1H, 9H-8,11-methanocyclopropa[4′,5′]cyclopenta[1′,2′:18,19][1,10,3,6]dioxadiazacyclononadecino[11,12-b]quinoxaline-9-carboxamide] | 6.3 nM | 4.6 nM | 5.8 nM | 67 nM | 5.3 nM | 5.8 nM | 3.6 nM | 3.7 nM | 2.5 nM | 8.8 nM | – | – | – | – | – | – | –
6 | C=C[C@@H]1C[C@]1(NC(=O)[C@@H]1[C@H](C)[C@@H]2CN1C(=O)[C@H](C(C)(C)C)NC(=O)O[C@@H]1C[C@H]1CCCCCc1nc3ccc(OC)cc3nc1O2)C(=O)NS(=O)(=O)C1CC1 [Example 48, (1aR,5S,8S,9S,10R,22aR)-5-tert-butyl-N-{(1R,2S)-1-[(cyclopropylsulfonyl)carbamoyl]-2-ethenylcyclopropyl}-14-methoxy-9-methyl-3,6-dioxo-1,1a,3,4,5,6,9,10,18,19,20,21,22,22a-tetradecahydro-8H-7,10-methanocyclopropa[18,19][1,10,3,6]dioxadiazacyclononadecino[11,12-b]quinoxaline-8-carboxamide] | 2 nM | 1.8 nM | 9.7 nM | 73 nM | 2.2 nM | – | – | 4 nM | – | 6.5 nM | – | – | – | – | 13 nM | 1.7 nM | 1.1 nM
7 | C[C@@H]1[C@@H]2CN(C(=O)[C@H](C(C)(C)C)NC(=O)O[C@@H]3C[C@@H]4C[C@@H]4[C@H]3CC/C=C/Cn3c(nc4cc(Cl)ccc4c3=O)O2)[C@@H]1C(=O)N[C@]1(C(=O)NS(=O)(=O)C2(C)CC2)C[C@H]1C(F)F [Example 96, (1aS,2aR,6S,9S,10S,11R,21E,24aR,24bS)-6-tert-butyl-15-chloro-N-[(1R,2R)-2-(difluoromethyl)-1-{[(1-methylcyclopropyl)sulfonyl]carbamoyl}cyclopropyl]-10-methyl-4,7,18-trioxo-1a,2,2a,4,5,6,7,10,11,20,23,24,24a,24b-tetradecahydro-1H,9H,18H-8,11-methanocyclopropa[4′,5′]cyclopenta[1′,2′:18,19][1,10,3,6,12]dioxatriazacyclononadecino[11,12-b]quinazoline-9-carboxamide] | 12 nM | 11 nM | 5.4 nM | 77 nM | 8.9 nM | 12 nM | 5.2 nM | 3.8 nM | 4.1 nM | 3.6 nM | – | – | – | – | – | – | –
8 | C=C[C@@H]1C[C@]1(NC(=O)[C@@H]1[C@H](CC)[C@@H]2CN1C(=O)[C@H](C(C)(C)C)NC(=O)O[C@@H]1C[C@H]1CCCCCc1nc3ccc(OC)cc3nc1O2)C(=O)NS(=O)(=O)C1CC1 [Example 91, (1aR,5S,8S,9S,10R,22aR)-5-tert-butyl-N-{(1R,2S)-1-[(cyclopropylsulfonyl)carbamoyl]-2-ethenylcyclopropyl}-9-ethyl-14-methoxy-3,6-dioxo-1,1a,3,4,5,6,9,10,18,19,20,21,22,22a-tetradecahydro-8H-7,10-methanocyclopropa[18,19][1,10,3,6]dioxadiazacyclononadecino[11,12-b]quinoxaline-8-carboxamide] | 2.4 nM | 1.9 nM | 4 nM | 149 nM | 2.4 nM | 25 nM | 2.3 nM | 3.5 nM | 1.3 nM | 9.2 nM | – | – | – | – | – | – | –
